Experimental data taken from ChEMBL document CHEMBL3632602, “Selenoacyclovir and Selenoganciclovir: Discovery of a New Template for Antiviral Agents” (J Med Chem, 2015).
≈ marks a conversion by molar mass, not a printed value.

What was measured:
[1] = test system: Human alphaherpesvirus 3; assay: Antiviral activity against Varicella-zoster virus Ellen VR-1367 infected in African green monkey Vero cells after 3 days by MTT assay; assay type: functional, organism-based; details: Human alphaherpesvirus 3, Ellen VR-1367, Vero, 72 h
[2] = test system: Human alphaherpesvirus 2; assay: Antiviral activity against Herpes simplex virus 2 strain MS VR-540 infected in African green monkey Vero cells after 3 days by MTT assay; assay type: functional, organism-based; details: Human alphaherpesvirus 2, MS VR-540, Vero, 72 h
[3] = Cytotoxicity against human HEL299 cells after 3 days by MTT assay; assay type: cell-based, HEL 299
[4] = test system: Human betaherpesvirus 5; assay: Antiviral activity against Human cytomegalovirus Davis VR-807 infected in […] after 3 days by MTT assay; assay type: functional, organism-based; details: Human betaherpesvirus 5, Davis VR-807, 72 h
[5] = Solubility of compound in double-deionized water after 3 days by LC-MS/MS analysis; assay type: physicochemical
[6] = test system: Human alphaherpesvirus 1; assay: Antiviral activity against Herpes simplex virus 1 strain F VR-733 infected in African green monkey Vero cells after 3 days by MTT assay; assay type: functional, organism-based; details: Human alphaherpesvirus 1, Strain F ATCC VR 733, Vero, 72 h

| Structure (SMILES) | EC50 [1] [µM] | EC50 [2] [µM] | CC50 at 72 h [3] [µM] | EC50 [4] [µM] | solubility at 72 h [5] [µg/mL] | EC50 [6] [µM] |
| --- | --- | --- | --- | --- | --- | --- |
| Nc1nc2c(ncn2COCCO)c(=O)[nH]1 [ACYCLOVIR] | 6.4 | 1.02 | > 100 | 18.9 | 3920 (≈ 17.4 mM) | 0.66 |
| Nc1nc2c(ncn2C[Se]CCO)c(=O)[nH]1 | > 100 | 6.34 | > 100 | > 100 | 1060 (≈ 3.68 mM) | 1.47 |
| Nc1nc2c(ncn2C[Se]C(CO)CO)c(=O)[nH]1 | > 100 | > 100 | > 100 | 53.1 | 2230 (≈ 7.01 mM) | > 100 |
| Nc1nc2c(ncn2COC(CO)CO)c(=O)[nH]1 [GANCICLOVIR] | 11.1 | 1.4 | > 100 | 2.14 | 4960 (≈ 19.4 mM) | 0.9 |
